According to US9290507B2, “B-RAF kinase inhibitors” (Boehringer Ingelheim International GmbH, priority 2010, dated 2016):
pIC50: −log10 of the molar value.

Each compound was assayed against B-Raf (V600E)-kinase (Homo sapiens (Human), UniProt P15056, V600E) (assay: Kinase test B-Raf (V600E)). Details: 1 h preincubation, 250 μM ATP.
Assay type: biochemical
Method: In a dilution series 10 μL/well of test substance solution are placed in a multiwell plate. The dilution series is selected so that generally a range of concentrations of 2 μM to 0.119 nM or 0.017 nM is covered. If necessary the initial concentration of 2 μM is changed to 50 μM, 10 μM or 0.4 μM or 0.2857 μM and further dilution is carried out accordingly. The final concentration of DMSO is 5%. 10 μL/well of the B-Raf (V600E)-kinase solution are pipetted in (containing 0.5 ng B-Raf (V600E)-kinase (e.g. from Upstate) in 20 mM Tris-HCl pH 7.5, 0.1 mM EDTA, 0.1 mM EGTA, 0.286 mM sodium orthovanadate, 10% glycerol, 1 mg/mL bovine serum albumin, 1 mM dithiothreitol) and the mixture is incubated for 1 h at RT under with shaking. The kinase reaction is started by the addition of 20 μL/well ATP solution [final concentration: 250 μM ATP, 30 mM Tris-HCl pH 7.5, 0.02% Brij, 0.2 mM sodium orthovanadate, 10 mM magnesium acetate, 0.1 mM EGTA, phosphatase cocktail (Sigma, #P2850, dilution recommended by the manufacturer)] and 10 μL/well MEK1 solution [containing 50 ng biotinylated MEK1 (prepared from purified MEK1 according to standard procedure, e.g. with EZ-Link Sulpho-NHS-LC-Biotin reagent, Pierce, #21335)] and carried out for 60 min at RT with constant shaking. The reaction is stopped by the addition of 12 μL/well of a 100 mM EDTA solution and incubation is continued for a further 5 min. 55 μL/well of the reaction solution are transferred into a streptavidin-coated plate (e.g. Streptawell HighBond, Roche, #11989685001) and shaken gently for 1 h at RT, in order to bind biotinylated MEK1 to the plate. After elimination of the liquid the plate is washed five times with 200 μL/well of 1×PBS and 100 μL/well solution of primary antibody plus europium-labelled secondary antibody [Anti Phospho-MEK (Ser217/221), Cell Signaling, #9121 and Eu-N1 labelled goat-anti-rabbit antibody, Perkin Elmer, #AD0105] is added, the primary antibody is diluted 1:2000 and the secondary antibody is diluted to 0.4-0.5 μg/mL in Delfia Assay Buffer (Perkin Elmer, #1244-111). After 1 h shaking at RT the solution is poured away and washed five times with 200 μL/well Delfia Wash Buffer (Perkin Elmer, #4010-0010/#1244-114). After the addition of 200 μL/well Enhancement Solution (Perkin Elmer, #4001-0010/#1244-105) the mixture is shaken for 10 min at RT and then measured in a Wallac Victor using the program “Delfia Time Resolved Fluorescence (Europium)”. IC50 values are obtained from these dosage-activity curves using a software program (GraphPadPrizm).

Sequence of B-Raf (V600E)-kinase (P15056 whole entry V600E): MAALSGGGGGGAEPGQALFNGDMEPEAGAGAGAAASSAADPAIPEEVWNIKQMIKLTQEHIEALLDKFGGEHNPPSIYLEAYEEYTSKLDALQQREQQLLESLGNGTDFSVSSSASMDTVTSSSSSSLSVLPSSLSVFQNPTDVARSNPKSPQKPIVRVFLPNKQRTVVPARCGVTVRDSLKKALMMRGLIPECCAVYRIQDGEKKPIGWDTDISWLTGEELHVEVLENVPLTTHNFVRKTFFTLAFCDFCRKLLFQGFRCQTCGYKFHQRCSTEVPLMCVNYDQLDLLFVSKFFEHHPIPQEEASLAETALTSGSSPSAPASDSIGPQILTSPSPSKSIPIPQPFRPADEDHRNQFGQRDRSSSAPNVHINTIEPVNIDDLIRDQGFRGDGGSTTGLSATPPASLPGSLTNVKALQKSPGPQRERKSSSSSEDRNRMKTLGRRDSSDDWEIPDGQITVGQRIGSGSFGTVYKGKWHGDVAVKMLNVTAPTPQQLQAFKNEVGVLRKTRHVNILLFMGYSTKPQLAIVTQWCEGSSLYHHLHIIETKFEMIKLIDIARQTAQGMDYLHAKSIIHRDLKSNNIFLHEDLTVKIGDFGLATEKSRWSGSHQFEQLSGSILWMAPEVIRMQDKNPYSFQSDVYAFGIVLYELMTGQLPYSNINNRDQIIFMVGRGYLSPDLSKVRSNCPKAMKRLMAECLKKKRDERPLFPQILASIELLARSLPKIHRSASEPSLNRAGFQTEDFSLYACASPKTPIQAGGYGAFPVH

pIC50 | Structure (SMILES)
8.15 | CCN1CCN(c2cncc(-c3cn(-c4cc(C(=O)Nc5cc(C(F)(F)F)ccn5)ccc4C)nn3)c2)CC1 [I-87]
8.30 | C=CCN1CCN(c2cncc(-c3cn(-c4cc(NC(=O)c5ccc(C(C)(C)C)o5)ccc4C)nn3)c2)CC1 [II-18]
7.21 | Cc1ccc(C(=O)Nc2cc(C(C)(C)C)on2)cc1-n1cc(-c2cncc(N3CCCCC3)c2)nn1 [I-42]
8.10 | Cc1ccc(C(=O)Nc2cc(C(F)(F)F)ccn2)cc1-n1cc(-c2cncc(N3CCC(N(C)C)CC3)c2)nn1 [I-60]
7.30 | Cc1ccc(C(=O)Nc2cc(C(C)(C)C)on2)cc1-n1cc(-c2cncc(NCC(F)(F)F)c2)nn1 [I-21]
7.29 | Cc1ccc(C(=O)Nc2cc(C(C)(C)C)on2)cc1-n1cc(-c2cncc(NCC(F)F)c2)nn1 [I-54]
7.66 | Cc1ccc(C(=O)Nc2cc(C(C)(C)C)on2)cc1-n1cc(-c2cncc(N3CCN(CC4CCCO4)CC3)c2)nn1 (centres unmarked) [I-8]
8.15 | Cc1ccc(C(=O)Nc2cc(C(C)(C)C)on2)cc1-n1cc(-c2cncc(N(C)CCN(C)C)c2)nn1 [I-3]
8.05 | Cc1ccc(NC(=O)c2ccc(C(C)(C)C)o2)cc1-n1cc(-c2cncc(N3CCOCC3)c2)nn1 [II-13]
8.00 | Cc1ccc(NC(=O)c2ccc(C(C)(C)C)s2)cc1-n1cc(-c2cncc(N3CCOCC3)c2)nn1 [II-11]
7.85 | Cc1ccc(NC(=O)c2cc(CNC3CCN(C)CC3)c(C(C)(C)C)o2)cc1-n1cc(-c2cncc(N3CCOCC3)c2)nn1 [II-41]
8.22 | CCN1CCN(c2cncc(-c3cn(-c4cc(C(=O)Nc5cc(C(C)(C)C)on5)ccc4C)nn3)c2)CC1 [I-48]
7.92 | Cc1ccc(C(=O)Nc2cc(C(C)(C)C)on2)cc1-n1cc(-c2cncc(N3CCC(N(C)C)CC3)c2)nn1 [I-51]
7.77 | Cc1ccc(C(=O)Nc2cc(C(C)(C)C)on2)cc1-n1cc(-c2cncc(NC(C)C)c2)nn1 [I-14]
7.72 | COCCCN1CCN(c2cncc(-c3cn(-c4cc(C(=O)Nc5cc(C(C)(C)C)on5)ccc4C)nn3)c2)CC1 [I-40]
7.36 | Cc1ccc(C(=O)Nc2cc(C(F)(F)F)ccn2)cc1-n1cc(-c2cncc(N(C)CC3CCCO3)c2)nn1 (centres unmarked) [I-59]
7.96 | Cc1ccc(NC(=O)c2cc(C(C)(C)C)nn2C)cc1-n1cc(-c2cncc(N3CCOCC3)c2)nn1 [II-4]
7.72 | Cc1ccc(C(=O)Nc2cc(C(C)(C)C)nn2C)cc1-n1cc(-c2cncc(N3CCOCC3)c2)nn1 [I-24]
8.15 | Cc1ccc(C(=O)Nc2cc(C(F)(F)F)ccn2)cc1-n1cc(-c2cncc(N3CCN(C)CC3)c2)nn1 [I-83]
7.35 | Cc1ccc(C(=O)Nc2cc(C(C)(C)C)on2)cc1-n1cc(-c2cncc(N(C)C(C)C)c2)nn1 [I-35]

pIC50 | Structure (SMILES)
8.40 | Cc1ccc(C(=O)Nc2cc(C(F)(F)F)ccn2)cc1-n1cc(-c2cncc(N3C[C@@H]4C[C@H]3CN4)c2)nn1 [I-71]
8.05 | Cc1ccc(C(=O)Nc2cc(C(F)(F)F)ccn2)cc1-n1cc(-c2cncc(N3CC[C@H](N(C)C)C3)c2)nn1 [I-79]
7.80 | Cc1ccc(C(=O)Nc2cc(C(C)(C)C)nn2C)cc1-n1cc(-c2cncc(N3CCN(C)CC3)c2)nn1 [I-55]
8.10 | CCN1CCN(c2cncc(-c3cn(-c4cc(NC(=O)c5ccc(C(C)(C)C)s5)ccc4C)nn3)c2)CC1 [II-27]
8.05 | Cc1ccc(C(=O)Nc2cc(C(C)(C)C)on2)cc1-n1cc(-c2cncc(NCC3CCCO3)c2)nn1 (centres unmarked) [I-34]
8.15 | CCOCCN1CCN(c2cncc(-c3cn(-c4cc(NC(=O)c5ccc(C(C)(C)C)o5)ccc4C)nn3)c2)CC1 [II-22]
7.51 | Cc1ccc(NC(=O)c2cc(C)n(C(C)(C)C)n2)cc1-n1cc(-c2cncc(N3CCN(C4CC4)CC3)c2)nn1 [II-34]
8.22 | Cc1ccc(C(=O)Nc2cc(C(C)(C)C)on2)cc1-n1cc(-c2cncc(N3CCC(N4CCN(C)CC4)C3)c2)nn1 (centres unmarked) [I-89]
7.96 | Cc1ccc(NC(=O)c2cc(C)n(C(C)(C)C)n2)cc1-n1cc(-c2cncc(N3CCN(C)CC3)c2)nn1 [II-38]
8.00 | Cc1ccc(C(=O)Nc2cc(C(F)(F)F)ccn2)cc1-n1cc(-c2cncc(NC3CCOCC3)c2)nn1 [I-81]
8.00 | Cc1ccc(C(=O)Nc2cc(C(C)(C)C)on2)cc1-n1cc(-c2cncc(NC3CC3)c2)nn1 [I-28]
7.85 | Cc1ccc(NC(=O)c2cc(CNC(C)C)c(C(C)(C)C)o2)cc1-n1cc(-c2cncc(N3CCOCC3)c2)nn1 [II-2]
8.00 | Cc1ccc(C(=O)Nc2cc(C(C)(C)C)on2)cc1-n1cc(-c2cncc(N3CCC(N4CCN(C)CC4)CC3)c2)nn1 [I-90]
8.52 | Cc1ccc(NC(=O)c2ccc(C(C)(C)C)o2)cc1-n1cc(-c2cncc(N3CCN(C(C)(C)C)CC3)c2)nn1 [II-3]
7.82 | Cc1ccc(C(=O)Nc2cc(C(F)(F)F)ccn2)cc1-n1cc(-c2cncc(N3CC[C@@H](N(C)C)C3)c2)nn1 [I-80]
7.66 | C=CCN1CCN(c2cncc(-c3cn(-c4cc(C(=O)Nc5cc(C(C)(C)C)on5)ccc4C)nn3)c2)CC1 [I-6]
8.15 | Cc1ccc(C(=O)Nc2cc(C(F)(F)F)ccn2)cc1-n1cc(-c2cncc(N3CCC(N(C)C)C3)c2)nn1 (centres unmarked) [I-75]
7.96 | Cc1ccc(NC(=O)c2cc(CNC(C)(C)C)c(C(C)(C)C)o2)cc1-n1cc(-c2cncc(N3CCOCC3)c2)nn1 [II-40]
9.00 | Cc1ccc(NC(=O)c2ccc(C(C)(C)C)o2)cc1-n1cc(-c2cncc(N3CCNCC3)c2)nn1 [II-21]
7.92 | Cc1ccc(C(=O)Nc2cc(C(C)(C)C)on2)cc1-n1cc(-c2cncc(N3CCC(CN(C)C)CC3)c2)nn1 [I-9]

pIC50 | Structure (SMILES)
8.00 | Cc1ccc(C(=O)Nc2cc(C(C)(C)C)on2)cc1-n1cc(-c2cncc(NC3CCOCC3)c2)nn1 [I-38]
7.55 | Cc1ccc(C(=O)Nc2cc(C(C)(C)C)on2)cc1-n1cc(-c2cncc(N3CCN(C4CC4)CC3)c2)nn1 [I-26]
7.44 | Cc1ccc(NC(=O)c2cc(CN(C)CCN(C)C)c(C(C)(C)C)o2)cc1-n1cc(-c2cncc(N3CCOCC3)c2)nn1 [II-43]
8.70 | Cc1ccc(NC(=O)c2ccc(C(C)(C)C)o2)cc1-n1cc(-c2cncc(N3CCN(C)CC3)c2)nn1 [II-15]
8.00 | Cc1ccc(NC(=O)c2cc(CNCCN(C)C)c(C(C)(C)C)o2)cc1-n1cc(-c2cncc(N3CCOCC3)c2)nn1 [II-45]
7.85 | Cc1ccc(C(=O)Nc2cc(C(C)(C)C)on2)cc1-n1cc(-c2cncc(N3CCN(CCN4CCOCC4)CC3)c2)nn1 [I-16]
7.68 | Cc1ccc(C(=O)Nc2cc(C(F)(F)F)ccn2)cc1-n1cc(-c2cncc(NC3CCN(C)CC3)c2)nn1 [I-76]
9.00 | COCCCN1CCN(c2cncc(-c3cn(-c4cc(NC(=O)c5ccc(C(C)(C)C)o5)ccc4C)nn3)c2)CC1 [II-17]
8.22 | Cc1ccc(C(=O)Nc2cc(C(F)(F)F)ccn2)cc1-n1cc(-c2cncc(N3C[C@@H]4C[C@H]3CN4C)c2)nn1 [I-82]
8.10 | Cc1ccc(C(=O)Nc2cc(C(C)(C)C)on2)cc1-n1cc(-c2cncc(N(C)C3CCOC3)c2)nn1 (centres unmarked) [I-10]
8.05 | CCN1CCC2(CCN(c3cncc(-c4cn(-c5cc(C(=O)Nc6cc(C(C)(C)C)on6)ccc5C)nn4)c3)C2)C1 (centres unmarked) [I-7]
7.89 | Cc1ccc(C(=O)Nc2cc(C(C)(C)C)on2)cc1-n1cc(-c2cncc(N3CCN(CC(C)C)CC3)c2)nn1 [I-50]
7.68 | Cc1ccc(C(=O)Nc2cc(C(C)(C)C)on2)cc1-n1cc(-c2cncc(N3CCN(C)C(C)C3)c2)nn1 (centres unmarked) [I-15]
7.35 | Cc1ccc(C(=O)Nc2cc(C(C)(C)C)on2)cc1-n1cc(-c2cncc(N(C)CC3CCCO3)c2)nn1 (centres unmarked) [I-25]
8.15 | Cc1ccc(C(=O)Nc2cc(C(F)(F)F)ccn2)cc1-n1cc(-c2cncc(N(C)C3CCOC3)c2)nn1 (centres unmarked) [I-68]
7.54 | CCOCCN1CCN(c2cncc(-c3cn(-c4cc(C(=O)Nc5cc(C(C)(C)C)on5)ccc4C)nn3)c2)CC1 [I-49]
8.22 | Cc1ccc(C(=O)Nc2cc(C(F)(F)F)ccn2)cc1-n1cc(-c2cncc(NC3CCN(C)C3)c2)nn1 (centres unmarked) [I-63]
7.47 | COCCN(C)c1cncc(-c2cn(-c3cc(C(=O)Nc4cc(C(F)(F)F)ccn4)ccc3C)nn2)c1 [I-73]

Structure (SMILES) | pIC50
Cc1ccc(C(=O)Nc2cc(C(F)(F)F)ccn2)cc1-n1cc(-c2cncc(N(C)C3CCN(C)CC3)c2)nn1 [I-74] | 7.92
